Source: patent US12077503B2, “Substituted cyclic amides and their use as herbicides” (FMC CORPORATION, priority 2015, dated 2024)

Assays:
Assay type in all cases: in vivo
[1] = test system: velvetleaf (Abutilon theophrasti); test: Test G Pre-Emergence Protocol; conditions: Abutilon theophrasti, pre-emergence, 312 h, evaluated after 13 days
How it was run: (§1)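 Pots of seeds in standard soil were grown for one day in a glasshouse (24/16 °C day/night, 14 h light, 65% humidity), then sprayed with compound in acetone/water 50:50 with 0.5% Tween 20 at 15.625, 62.5 or 250 g/ha. Damage was scored after 13 days on a 0 (none) to 100 (total) scale.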

[2] = test system: barnyardgrass (Echinochloa crus-galli); test: Test G Pre-Emergence Protocol; conditions: Echinochloa crus-galli, pre-emergence, 312 h, evaluated after 13 days
How it was run: as §1

[3] = test system: giant foxtail (Setaria faberi); test: Test G Pre-Emergence Protocol; conditions: Setaria faberi, pre-emergence, 312 h, evaluated after 13 days
How it was run: as §1

[4] = test system: ivy-leaved morning glory (Ipomoea hederacea); test: Test G Pre-Emergence Protocol; conditions: Ipomoea, pre-emergence, 312 h, evaluated after 13 days
How it was run: as §1

corn (Zea mays) [5] = test: Test G Pre-Emergence Protocol; conditions: Zea mays, pre-emergence, 312 h, evaluated after 13 days
How it was run: as §1

[6] = test system: redroot pigweed (Amaranthus retroflexus); test: Test G Pre-Emergence Protocol; conditions: Amaranthus retroflexus, pre-emergence, 312 h, evaluated after 13 days
How it was run: as §1

[7] = test system: velvetleaf (Abutilon theophrasti); test: Test G Post-Emergence Protocol; conditions: Abutilon theophrasti, post-emergence, 312 h
How it was run: (§2)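 Seedlings grown 8 days in soil in a glasshouse (24/16 °C day/night, 14 h light, 65% humidity) were sprayed post-emergence with compound in acetone/water 50:50 plus 0.5% Tween 20 at 15.625, 62.5 or 250 g/ha. Damage was scored after 13 days on a 0–100 scale (100 = total damage).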

[8] = test system: barnyardgrass (Echinochloa crus-galli); test: Test G Post-Emergence Protocol; conditions: Echinochloa crus-galli, post-emergence, 312 h
How it was run: as §2

[9] = test system: giant foxtail (Setaria faberi); test: Test G Post-Emergence Protocol; conditions: Setaria faberi, post-emergence, 312 h
How it was run: as §2

[10] = test system: ivy-leaved morning glory (Ipomoea hederacea); test: Test G Post-Emergence Protocol; conditions: Ipomoea, post-emergence, 312 h
How it was run: as §2

corn (Zea mays) [11] = test: Test G Post-Emergence Protocol; conditions: Zea mays, post-emergence, 312 h
How it was run: as §2

[12] = test system: redroot pigweed (Amaranthus retroflexus); test: Test G Post-Emergence Protocol; conditions: Amaranthus retroflexus, post-emergence, 312 h
How it was run: as §2

CSc1nc(N)cc(NC(=O)[C@@H]2C(=O)N(C)C[C@H]2c2ccc(C(F)(F)F)cc2)n1 (racemic) [Compound 1644]
pest or weed control at 15.625 g/ha ([1]; 15.625 g ai/ha, read-out: Velvetleaf damage rating (100=total damage to plant; 0=no damage to plant)): 0%
pest or weed control at 62.5 g/ha ([1]; 62.5 g ai/ha, 100=total damage to plant, 0=no damage to plant, read-out: plant damage rating, Velvetleaf): 0%
pest or weed control at 250 g/ha ([1]; 250 g ai/ha, read-out: Velvetleaf damage rating (100=total damage to plant; 0=no damage to plant)): 0%
pest or weed control at 15.625 g/ha ([2]; 15.625 g ai/ha, read-out: Barnyard grass damage rating (100=total damage to plant; 0=no damage to plant)): 0%
pest or weed control at 62.5 g/ha ([2]; 62.5 g ai/ha, 100=total damage to plant, 0=no damage to plant, read-out: plant damage rating, Barnyardgrass): 0%
pest or weed control at 250 g/ha ([2]; 250 g ai/ha, read-out: Barnyardgrass damage rating (100=total damage to plant; 0=no damage to plant)): 0%
pest or weed control at 15.625 g/ha ([3]; 15.625 g ai/ha, read-out: Foxtail, Giant damage rating (100=total damage to plant; 0=no damage to plant)): 0%
pest or weed control at 62.5 g/ha ([3]; 62.5 g ai/ha, 100=total damage to plant, 0=no damage to plant, read-out: plant damage rating, Foxtail, Giant): 0%
pest or weed control at 250 g/ha ([3]; 250 g ai/ha, read-out: Foxtail, Giant damage rating (100=total damage to plant; 0=no damage to plant)): 0%
pest or weed control at 15.625 g/ha ([4]; 15.625 g ai/ha, read-out: Morning-glory, Ivy-leaved damage rating (100=total damage to plant; 0=no damage to plant)): 0%
pest or weed control at 62.5 g/ha ([4]; 62.5 g ai/ha, 100=total damage to plant, 0=no damage to plant, read-out: plant damage rating, Morningglory, Ivy-leaved): 0%
pest or weed control at 250 g/ha ([4]; 250 g ai/ha, read-out: Morningglory, Ivy-leaved damage rating (100=total damage to plant; 0=no damage to plant)): 0%
plant injury at 15.625 g/ha (corn (Zea mays) [5]; 15.625 g ai/ha, read-out: Corn damage rating (100=total damage to plant; 0=no damage to plant)): 0%
plant injury at 62.5 g/ha (corn (Zea mays) [5]; 62.5 g ai/ha, 100=total damage to plant, 0=no damage to plant, read-out: plant damage rating, Corn): 0%
plant injury at 250 g/ha (corn (Zea mays) [5]; 250 g ai/ha, read-out: Corn damage rating (100=total damage to plant; 0=no damage to plant)): 0%
pest or weed control at 15.625 g/ha ([6]; 15.625 g ai/ha, read-out: Pigweed, Redroot damage rating (100=total damage to plant; 0=no damage to plant)): 0%
pest or weed control at 62.5 g/ha ([6]; 62.5 g ai/ha, 100=total damage to plant, 0=no damage to plant, read-out: plant damage rating, Pigweed, Redroot): 0%
pest or weed control at 250 g/ha ([6]; 250 g ai/ha, read-out: Pigweed, Redroot damage rating (100=total damage to plant; 0=no damage to plant)): 0%
pest or weed control at 15.625 g/ha ([7]; 15.625 g ai/ha, evaluated after 13 days (100=total damage to plant; 0=no damage to plant), read-out: Velvetleaf damage rating): 0%
pest or weed control at 62.5 g/ha ([7]; 62.5 g ai/ha, evaluated after 13 days, read-out: Velvetleaf damage rating (100=total damage to plant; 0=no damage to plant)): 0%
pest or weed control at 250 g/ha ([7]; 250 g ai/ha, evaluated after 13 days, read-out: damage to plant, Velvetleaf (100=total damage to plant; 0=no damage to plant)): 0%
pest or weed control at 15.625 g/ha ([8]; 15.625 g ai/ha, evaluated after 13 days (100=total damage to plant; 0=no damage to plant), read-out: Barnyardgrass damage rating): 0%
pest or weed control at 62.5 g/ha ([8]; 62.5 g ai/ha, evaluated after 13 days, read-out: Barnyardgrass damage rating (100=total damage to plant; 0=no damage to plant)): 0%
pest or weed control at 250 g/ha ([8]; 250 g ai/ha, evaluated after 13 days, read-out: damage to plant, Barnyardgrass (100=total damage to plant; 0=no damage to plant)): 20%
pest or weed control at 15.625 g/ha ([9]; 15.625 g ai/ha, evaluated after 13 days (100=total damage to plant; 0=no damage to plant), read-out: Foxtail, Giant damage rating): 0%
pest or weed control at 62.5 g/ha ([9]; 62.5 g ai/ha, evaluated after 13 days, read-out: Foxtail, Giant damage rating (100=total damage to plant; 0=no damage to plant)): 20%
pest or weed control at 250 g/ha ([9]; 250 g ai/ha, evaluated after 13 days, read-out: damage to plant, Foxtail, Giant (100=total damage to plant; 0=no damage to plant)): 30%
pest or weed control at 15.625 g/ha ([10]; 15.625 g ai/ha, evaluated after 13 days (100=total damage to plant; 0=no damage to plant), read-out: Morningglory, Ivy-leaved damage rating): 0%
pest or weed control at 62.5 g/ha ([10]; 62.5 g ai/ha, evaluated after 13 days, read-out: Morningglory, Ivy-leaved damage rating (100=total damage to plant; 0=no damage to plant)): 10%
pest or weed control at 250 g/ha ([10]; 250 g ai/ha, evaluated after 13 days, read-out: damage to plant, Morningglory, Ivy-leaved (100=total damage to plant; 0=no damage to plant)): 40%
plant injury at 15.625 g/ha (corn (Zea mays) [11]; 15.625 g ai/ha, evaluated after 13 days (100=total damage to plant; 0=no damage to plant), read-out: Corn damage rating): 0%
plant injury at 62.5 g/ha (corn (Zea mays) [11]; 62.5 g ai/ha, evaluated after 13 days, read-out: Corn damage rating (100=total damage to plant; 0=no damage to plant)): 0%
plant injury at 250 g/ha (corn (Zea mays) [11]; 250 g ai/ha, evaluated after 13 days, read-out: damage to plant, Corn (100=total damage to plant; 0=no damage to plant)): 0%
pest or weed control at 15.625 g/ha ([12]; 15.625 g ai/ha, evaluated after 13 days (100=total damage to plant; 0=no damage to plant), read-out: Pigweed, Redroot damage rating): 0%
pest or weed control at 62.5 g/ha ([12]; 62.5 g ai/ha, evaluated after 13 days, read-out: Pigweed, Redroot damage rating (100=total damage to plant; 0=no damage to plant)): 0%
pest or weed control at 250 g/ha ([12]; 250 g ai/ha, evaluated after 13 days, read-out: damage to plant, Pigweed, Redroot (100=total damage to plant; 0=no damage to plant)): 0%
